Legend:
Experiment in all cases: Bliss excess, mean over the matrix (fraction); higher = more synergy
[1] = system: MIA-PaCa-2 (Pancreatic Carcinoma)
Procedure, shortened: (§1)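 Cell lines in DMEM/F12 or RPMI with 10% FBS were plated in 1536-well plates, held 24 hours at 37°C, 5% CO2, then given two-drug dose matrices for 72 hours (DMSO typically 0.2%). Viability was read by CellTiter-Glo 2.0 luminescence and scaled as inhibition from 0 (vehicle wells) to 1 (blank wells). Combination Emax is the second-highest inhibition in the matrix; Bliss excess is observed combination effect minus expected EA + EB − EA·EB, EA and EB being single-agent effects.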

NB69 (Neuroblastoma) = system: NB69 (Neuroblastoma)
Procedure, shortened: as §1

[2] = system: NCI-H727 (Other Solid Carcinomas)
Procedure, shortened: as §1

[3] = system: AMO-1 (Plasma Cell Myeloma)
Procedure, shortened: as §1

[4] = system: KARPAS-299 (T-Cell Non-Hodgkin's Lymphoma)
Procedure, shortened: as §1

[5] = system: MLMA (Other Blood Carcinomas)
Procedure, shortened: as §1

[6] = system: BT-549 (Breast Carcinoma)
Procedure, shortened: as §1

UACC-62 (Melanoma) = system: UACC-62 (Melanoma)
Procedure, shortened: as §1

D-263MG (Glioblastoma) = system: D-263MG (Glioblastoma)
Procedure, shortened: as §1

[7] = system: SW13 (Other Solid Carcinomas)
Procedure, shortened: as §1

[8] = system: EoL-1-cell (Acute Myeloid Leukemia)
Procedure, shortened: as §1

[9] = system: Caov-4 (Ovarian Carcinoma)
Procedure, shortened: as §1

[10] = system: RF-48 (B-Cell Non-Hodgkin's Lymphoma)
Procedure, shortened: as §1

[11] = system: EFM-19 (Breast Carcinoma)
Procedure, shortened: as §1

TK10 (Kidney Carcinoma) = system: TK10 (Kidney Carcinoma)
Procedure, shortened: as §1

[12] = system: PANC-04-03 (Pancreatic Carcinoma)
Procedure, shortened: as §1

Compound | Bliss excess [1] | Bliss excess (NB69 (Neuroblastoma)) | Bliss excess [2] | Bliss excess [3] | Bliss excess [4] | Bliss excess [5] | Bliss excess [6] | Bliss excess (UACC-62 (Melanoma)) | Bliss excess (D-263MG (Glioblastoma)) | Bliss excess [7] | Bliss excess [8] | Bliss excess [9] | Bliss excess [10] | Bliss excess [11] | Bliss excess (TK10 (Kidney Carcinoma)) | Bliss excess [12]
C=CCn1c(=O)c2cnc(Nc3ccc(N4CCN(C)CC4)cc3)nc2n1-c1cccc(C(C)(C)O)n1 [AZD1775] + CCc1c2c(nc3ccc(O)cc13)-c1cc3c(c(=O)n1C2)COC(=O)[C@]3(O)CC [SN-38] (first compound max 1 µM, partner max 0.3 µM) | 0.0699 | 0.0239 | -0.0018 | -0.052 | -0.042 | -0.0639 | -0.057 | -0.0497 | 0.0132 | 0.0119 | 0.0324 | -0.0557 | -0.0404 | -0.0175 | -0.0717 | -0.0594
C=CCn1c(=O)c2cnc(Nc3ccc(N4CCN(C)CC4)cc3)nc2n1-c1cccc(C(C)(C)O)n1 [AZD1775] + Nc1ccn([C@@H]2O[C@H](CO)[C@@H](O)C2(F)F)c(=O)n1 [Gemcitabine] (first compound max 1 µM, partner max 0.3 µM) | 0.0459 | 0.0419 | -0.0278 | 0.157 | 0.0851 | -0.0797 | -0.0069 | 0.0399 | 0.0297 | 0.0385 | 0.0391 | 0 | -0.005 | 0.0061 | -0.0299 | -0.0346
CN(CCO)CC[C@H](CSc1ccccc1)Nc1ccc(S(=O)(=O)NC(=O)c2ccc(N3CCC([C@@H](O)c4ccccc4-c4ccc(Cl)cc4)CC3)cc2)cc1S(=O)(=O)C(F)(F)F [AZD4320] + CS(=O)(=O)CCNCc1ccc(-c2ccc3ncnc(Nc4ccc(OCc5cccc(F)c5)c(Cl)c4)c3c2)o1 [Lapatinib] (first compound max 1 µM, 7x7, partner max 10 µM) | 0.0373 | 0.0465 | 0.0904 | 0.0695 | 0.0265 | 0.014 | -0.0188 | -0.0143 | -0.0288 | 0.0051 | 0.05 | -0.0144 | -0.0184 | 0.013 | -0.0942 | -0.0143
Cc1c2c(nn1C)CSCc1cc(n(C)n1)CSc1cc(c3ccccc3c1)OCCCc1c(C(=O)O)n(C)c3c-2c(Cl)ccc13 [AZD5991] + CC(=O)O[C@H]1C(=O)[C@@]2(C)[C@H]([C@H](OC(=O)c3ccccc3)[C@]3(O)C[C@H](OC(=O)[C@H](O)[C@@H](NC(=O)c4ccccc4)c4ccccc4)C(C)=C1C3(C)C)[C@]1(OC(C)=O)CO[C@@H]1C[C@@H]2O [Paclitaxel] (first compound max 1 µM, 7x7, partner max 3 µM) |  | 0.027 | -0.025 | 0.0096 | -0.0693 | -0.0803 | 0.0124 | 0.115 | 0.206 | 0.0376 | -0.0041 | 0.0995 | -0.0407 | 0.0948 | -0.0402 | 0.0111
Cc1c2c(nn1C)CSCc1cc(n(C)n1)CSc1cc(c3ccccc3c1)OCCCc1c(C(=O)O)n(C)c3c-2c(Cl)ccc13 [AZD5991] + CS(=O)(=O)CCNCc1ccc(-c2ccc3ncnc(Nc4ccc(OCc5cccc(F)c5)c(Cl)c4)c3c2)o1 [Lapatinib] (first compound max 1 µM, 7x7, partner max 10 µM) | -0.0094 | 0.021 | -0.0013 | 0.0149 | 0.0227 | -0.0474 | -0.042 | -0.0376 | -0.0735 | 0.0568 |  | 0.0835 | -0.0917 | -0.0035 | -0.0567 | -0.0275
Cc1c2c(nn1C)CSCc1cc(n(C)n1)CSc1cc(c3ccccc3c1)OCCCc1c(C(=O)O)n(C)c3c-2c(Cl)ccc13 [AZD5991] + Nc1ccn([C@@H]2O[C@H](CO)[C@@H](O)C2(F)F)c(=O)n1 [Gemcitabine] (first compound max 1 µM, 7x7, partner max 0.3 µM) | 0.0137 | 0.0037 | -0.0394 | 0.0042 | -0.0188 | -0.0451 | 0.0278 | -0.0219 | 0.08 | 0.038 | -0.0123 | -0.0312 | 0.0014 | 0.0744 | -0.0198 | -0.0643
C[C@@H]1COCCN1c1cc(C2([S@](C)(=N)=O)CC2)nc(-c2ccnc3[nH]ccc23)n1 [AZD6738] + C1CC(C1)(C(=O)[O-])C(=O)[O-].N.N.[Pt+2] [Carboplatin] (first compound max 10 µM, 7x7, partner max 10 µM) | -0.0272 | -0.0502 | -0.0445 | 0.0025 | -0.0261 | -0.102 | -0.0453 | -0.0289 | -0.0417 | -0.0051 | -0.0132 | -0.0209 | -0.0788 | -0.0328 | -0.0837 | -0.0682
